Data published in the METLIN SMRT retention time set (Domingo-Almenara et al. 2019).

Experiment: gradient 5% acetonitrile 3 min, to 50% in 2 min, to 85% in 15 min, held 3 min, 100 µL/min
Conditions: column: Zorbax Extend-C18 2.1 x 50 mm; eluents: water / acetonitrile, 0.1% formic acid
Outline: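 Data were gathered over 3 months by HPLC coupled to a quadrupole time-of-flight mass spectrometer, operated in positive and negative ionization mode. Mixtures of ~100 pure standards ran on a Zorbax Extend-C18 column (2.1 × 50 mm, 1.8 μm) at 100 μL/min, with water and acetonitrile each containing 0.1% formic acid and dead and dwell volumes of 40 μL and 900 μL. Retention time was read from adduct peaks picked by computer and checked manually.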

SMILES | RP-LC retention time
Cc1cn(-c2cc(NC(=O)c3ccc(C)c(Nc4nccc(-c5cccnc5)n4)c3)cc(C(F)(F)F)c2)cn1 | 776 s
c1ccc(-c2cn(CCC3CCCCN3)nn2)cc1 (stereo not given) | 509 s
COc1cc(-c2noc(-c3nn(-c4cccc(F)c4)ccc3=O)n2)cc(OC)c1OC | 824 s
O=C(c1n[nH]c2c1CCCC2)N1CCC2(CC1)N=C(c1ccccc1)NO2 | 698 s
Cc1ccsc1C(=O)Nc1ccc2c(c1)Sc1ncccc1C(=O)N2C(C)C | 886 s
CCc1noc(NC(C)=O)c1-c1ccc(C)c(S(=O)(=O)Nc2ccc(C)cc2Cl)c1 | 914 s
Cn1cccc1CN(C(=O)c1ccc(Cl)c(Cl)c1)C1CC1 | 994 s
CC(=O)Nc1nc2c(s1)CN(CC(=O)Nc1ccc(F)c(Cl)c1)CC2 | 573 s
Cc1ccc(F)c(NS(=O)(=O)c2cn(C(C)C)c3ncccc23)c1 | 912 s
O=C(Nc1nnc(SCc2nnc(-c3ccccc3)o2)s1)c1cccc(Cl)c1 | 977 s
O=c1n(CCOc2ccccc2)nc2ccc(S(=O)(=O)N3CCCCC3)cn12 | 922 s
Cc1nc2c(NC(=O)c3ccc(C(F)(F)F)s3)cccn2n1 | 900 s
CCn1c(C(=O)N2CCCC(C(=O)N3CCc4ccccc4C3)C2)cc2sccc21 (stereo not given) | 966 s
COc1cccc(NC(=O)N2CCOc3ccc(C)cc32)c1 | 968 s
CSc1ccc(NC(=O)COc2ccccc2)nn1 | 764 s
O=C(Cn1c(=O)ccc2cc(S(=O)(=O)N3CCCC3)ccc21)N1CCN(c2ncccn2)CC1 | 708 s
O=c1c2sccc2n(Cc2nc(-c3ccc(C(F)(F)F)cc3)no2)c(=O)n1-c1cccc(F)c1 | 1090 s
CCN(CC)S(=O)(=O)c1c[nH]c(=O)[nH]c1=O | 563 s
CCSc1nc2ccc(NS(=O)(=O)Cc3cc(F)cc(F)c3)cc2s1 | 1020 s
Cc1noc(C)c1-c1ccc(S(=O)(=O)Nc2ccccc2)cc1 | 912 s
O=C(Nc1ccc(Cl)cc1)Nc1c(-c2ccncc2)nc2ccccn12 | 631 s
Cc1ccc(CNC(=O)CCc2conc2-c2ccccc2)o1 | 865 s
CSc1ccccc1NC(=O)Cc1csc(NC(=O)c2ncccn2)n1 | 657 s
CCc1nc2cc(-c3noc(C4(c5ccccc5)CC4)n3)ccc2o1 | 1220 s
COc1ccc(S(=O)(=O)N2CCCC2C(N)=O)cc1 (stereo not given) | 593 s
CC(=O)c1ccn(S(=O)(=O)c2ccc(C)cc2)c1 | 804 s
COc1ccc(-c2cc3n(n2)CCCN(C(=O)c2cc4ccccc4[nH]2)C3)cc1 | 893 s

SMILES | RP-LC retention time
COC(=O)c1nnn(-c2ccc(Cl)cc2)c1C(=O)OC | 908 s
CC(C)n1c(N2CCCN(C(=O)COc3ccccc3)CC2)cc(=O)n(C(C)C)c1=O | 843 s
Clc1cccc2sc(NCC3CCCO3)nc12 (stereo not given) | 811 s
N#CCCSc1ccccc1NC(=O)c1ccc(C(=O)c2ccccc2)cc1 | 924 s
CCn1cc(-c2nc(C)c(C(=O)Nc3cc(F)ccc3F)s2)c2cccnc21 | 1070 s
CCCCNC(=O)Nc1ccccc1CC | 870 s
O=C(Cn1cnc(-c2noc(-c3ccccc3)n2)c1)NCc1ccccc1 | 803 s
CCn1nccc1-c1cccc(-c2noc(-c3cccc(Cl)c3)n2)c1 | 1360 s
Cc1cc(NC(=O)CSc2nncn2C)no1 | 554 s
COc1cc(OC)cc(-c2noc(Cn3nc(-c4ccc(C)cc4)ccc3=O)n2)c1 | 1090 s
Cn1c(=O)n(C)c2cc(S(=O)(=O)c3ccccc3)c(NC(=O)c3ccccc3F)cc21 | 878 s
CCC(=O)Nc1nc(-c2ccc3c(c2)N(C)C(=O)CO3)cs1 | 752 s
COc1ccc(CN2CN=C(Nc3nc(C)c4cc(OC)ccc4n3)NC2)cc1 | 748 s
O=C(Cn1nc2c(Sc3cccc(F)c3)nccn2c1=O)N1CCN(c2ccccc2)CC1 | 914 s
O=C(NC1CCCCCC1)C1c2ccccc2C(=O)N1Cc1cccnc1 (stereo not given) | 590 s
O=C(COc1ccc2c3c(c(=O)oc2c1)CCC3)N[C@H](Cc1c[nH]c2ccccc12)C(=O)O | 793 s
COc1ccc(S(=O)(=O)N2CCC(OCc3noc(C4CCCO4)n3)CC2)cc1 (stereo not given) | 863 s
COCCn1c(CCCC(=O)NC2CCCCCC2)nc2cccnc21 | 667 s
CCc1nc(-n2cccc2)sc1C(=O)Nc1ccc(F)c(C)c1 | 1170 s
CCc1noc(-c2cnc3nc(C)ccc3c2NCc2ccccc2C)n1 | 784 s
CCC(=O)N1CCc2sc(C(=O)N3CCN(c4ccc(Cl)cc4)CC3)cc2C1 | 899 s
COCc1noc(CC2CCOC3(CCN(C(=O)NC4CCCCC4)CC3)C2)n1 (stereo not given) | 758 s
CC(C)N1CCN(C(=O)c2ccc(CN3CCN(Cc4ccccc4)C(=O)C3=O)cc2)CC1 | 610 s
COc1ccc(/C=C/c2nc(NCCCN(C)C)c3ccccc3n2)cc1 | 639 s
Nc1cc(C2CCN(S(=O)(=O)c3cccc(C(F)(F)F)c3)CC2)no1 | 794 s
O=C(Nc1ccccc1)N1CCc2[nH]cnc2C1c1ccccc1 (stereo not given) | 625 s
COC(=O)c1ccc2c(=O)n(-c3ccc(Cl)cc3)c(N3CCCN(C)CC3)nc2c1 | 670 s

Second part, the compound after the results:

RP-LC retention time | SMILES
662 s | CC1(C(=O)NCc2ccccc2)CN(S(C)(=O)=O)CC(=O)N1C1CC1 (stereo not given)
699 s | CCOC(=O)C1CCN(C(=O)Cn2c(=O)oc3ccc(C(=O)N4CCCC4)cc32)CC1
883 s | CCC(=O)N1c2ccc(S(=O)(=O)N3CCCCC3)cc2CC1C(=O)NC1CCCC1 (stereo not given)
861 s | COc1cccc(S(=O)(=O)N2CCC(N3CCN(Cc4ccc(C)cc4)C(=O)C3=O)CC2)c1
901 s | O=C(CN1CCN(Cc2ccc(F)cc2)C1=O)NCc1ccc(OC(F)(F)F)cc1
954 s | CCc1nc(-c2ccc(S(=O)(=O)N3CCC(C(=O)NC4CCCCC4)CC3)cc2)no1
838 s | CC(Oc1cccc(Cl)c1)c1nc(-c2ccc3c(c2)ncn3CCC(=O)N2CCCC2)no1 (stereo not given)
617 s | CCCNC(=O)c1ccc2nc(CCc3ccc(NC(=O)CCC)cc3)[nH]c2c1
799 s | CCN(CC)C(=O)c1c2c(cn(-c3ccc(C)cc3)c1=O)C(=O)CC(C)(C)C2
659 s | O=C(Cn1c(N2CCCCC2)nc2ccccc2c1=O)NCc1cccc(Cl)c1
1170 s | CC(C)CCNC(=O)c1ccc(Oc2nccnc2N2CCC(C)CC2)cc1
842 s | O=C(C1CCCO1)N1CCC(CCOc2cccc(F)c2)CC1 (stereo not given)
999 s | CCc1cc(C(=O)N2CCCC2c2ccc(C)cc2)no1 (stereo not given)
830 s | COC(=O)[C@H](Cc1c[nH]c2ccccc12)NC(=O)c1ccc2c(c1)C(=O)N(C1CC1)C2=O
638 s | CCn1cc(CCN2CCN(S(=O)(=O)c3ccc(F)cc3)CC2)c2cccnc21
785 s | CCOC(=O)c1[nH]c(C)c(CCC(=O)N2CCC(C(=O)NCc3ccc(F)cc3)CC2)c1C
673 s | O=C(Nc1cccc(-c2nnc3n2CCCC3)c1)C1CCCC1
1020 s | CCCC(=O)N1CCN(c2nc3ccccc3nc2C(F)(F)F)CC1

RP-LC retention time | SMILES
1220 s | Cc1noc(C)c1S(=O)(=O)N1CCC2(CC1)CC(CCOc1ccc(F)cc1)CCO2 (stereo not given)
905 s | CCc1cccc(N2C(=O)CN(S(C)(=O)=O)CC2(C)C(=O)NCc2ccc(C)cc2)c1 (stereo not given)
970 s | CCOC(=O)c1ccc(N2C(=O)[C@@H]3Cc4ccccc4CN3C2=O)cc1
839 s | O=C(NC1CC1)c1ccc(OCC2CCN(C(=O)c3cc(F)ccc3Cl)CC2)cc1
792 s | CCOC(=O)C1CCN(C(=O)C2CCN(c3nnc(-c4ccc(OC)cc4)o3)CC2)CC1
1040 s | CCOc1ccc(NS(=O)(=O)c2c(C)sc(C)c2-c2n[nH]c(C)c2C)cc1
819 s | Cc1cccc(CNC(=O)C2(C)Cn3cnc(C(=O)NC4CCCCC4)c3C(=O)N2C2CC2)c1 (stereo not given)
763 s | Cc1ccccc1CC(=O)NC(CC(C)C)C(=O)Nc1nc2ccccc2[nH]1 (stereo not given)
935 s | CCNC(=O)N(CC(=O)N1CCc2sccc2C1COc1ccc(C)cc1)CC1CC1 (stereo not given)
985 s | CN(C)c1cccc(C(=O)N2CCCC2c2nc(-c3ccc(F)cc3)no2)c1 (stereo not given)
767 s | COc1ccc(N2CCCS2(=O)=O)cc1NC(=O)c1ccc(Br)o1
606 s | CCCN(CCC)C(=O)c1cc(NC(=O)C(C)C)cnc1N1CCNCC1
804 s | Cc1ccc(F)cc1NC(=O)Cn1nc2nc(N3CCCC(C)C3)ccn2c1=O (stereo not given)
1110 s | Cc1ccc(CNC(=O)Cn2nc(N3CCCC(C)C3)c3ccccc3c2=O)cc1 (stereo not given)
711 s | Cc1cc(F)ccc1NC(=O)C1CCCN(c2cnc3nccnc3c2)C1 (stereo not given)
704 s | O=C(CCc1c[nH]c2ccccc12)Nc1ccc(-c2nnc3n2CCCC3)cc1
800 s | CCC(=O)N1CCc2ccc(C(=O)NC3CCCCC3)cc21
664 s | CS(=O)(=O)N(C1CCOCC1)C1CN(C(=O)Nc2ccc(F)cc2F)C1
